Source: patent US20260306657A1, “LIPOSOME CONJUGATE TARGETING M2 MACROPHAGE AND USE THEREOF” (HANGZHOU NORMAL UNIVERSITY, priority 2022, published 2026)

How the values were obtained:
4T1 breast cancer cells = assay: Cytotoxicity on 4T1 breast cancer cells (CCK-8 method); format: cell-based; conditions: 24 h, CCK-8, n=3
Method: Cytotoxicity Studies of Tumor-Targeted Liposomes:
(1) The toxicity of ELE to 4T1 breast cancer cells was studied using a CCK-8 method. 4T1 cells (2×10^4 cells/well) were inoculated in a 96-well plate. After culturing for 24 h, the cells were treated with RMPI-1640 media containing ELE, ELE/Lipo, ELE/Lipo-AS1411, and FA-ELE/Lipo-AS1411 (drug concentrations being 10 μg/mL, 20 μg/mL, 40 μg/mL, 80 μg/mL, and 160 μg/mL, respectively) for 24 h. ELE was dissolved and diluted in medium containing 1% 0 ethanol, and untreated cells were used as a control. 100 μL of 10% CCK-8 solution was added into each well and incubated for 2 h. The absorbance at 450 nm was measured using an enzyme-labeled instrument, and the IC50 value of each drug group was calculated and analyzed using Graphpad9.0. A schematic diagram of the cytotoxicity of different concentrations of free ELE, ELE/Lipo, ELE/Lipo-AS1411, and FA-ELE/Lipo-AS1411 on 4T1 cells was shown in FIG. 5, where n=3, x±SD, ** P<0.01, *** P<0.001, **** P<0.0001 (vs. ELE); #P<0.05, ###P<0.001 (vs. ELE/Lipo-AS1411).

M2 macrophages = assay: Cytotoxicity of ELE on M1 and M2 macrophages (CCK-8 method); format: cell-based; conditions: 24 h, at 5 concentrations (10-160 μg/mL), * P<0.05, n=3
Method: (2) The toxicity of ELE on M1 and M2 macrophages was studied using the CCK-8 method. RAW264.7 cells were pre-treated to polarize into M1 and M2 macrophages, and the M1 and M2 macrophages (2×10^5 cells/well) were inoculated in a 96-well plate. After culturing for 24 h, the cells were treated with 100 μL of DMEM high-glucose media containing ELE (drug concentrations being 10 μg/mL, 20 μg/mL, 40 μg/mL, 80 μg/mL, and 160 μg/mL, respectively) for 24 h. ELE was dissolved and diluted in medium containing 1% % ethanol, and untreated cells were used as a control. 100 μL of 10% CCK-8 solution was added into each well and incubated for 2 h. The absorbance at 450 nm was measured using an enzyme-labeled instrument, and the IC 50 values of each group of drugs were calculated and analyzed using Graphpad Prism 9.0. A schematic diagram of the cytotoxicity of different concentrations of ELE on M1 and M2 macrophages is shown in FIG. 6, where n=3, x±SD, * P<0.05, *** P<0.001, **** P<0.0001.

Substance: Elemene
- IC50 (4T1 breast cancer cells): 921.4 µg/mL
- toxic effect on M2 macrophages (vs. M1 macrophages) (M2 macrophages): selective toxic effect on M2 macrophages
